The values that follow come from ChEMBL document CHEMBL1201862, “PubChem BioAssay data set” (2004).

SMILES strings stand for the structures.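 Step 1: Grow cells in 96-well plates. Step 2: Expose to compound for 48 hours at 5 concentrations. Step 3: Interpolate endpoints linearly; if unreached, use highest concentration. At the GI50, growth is halved.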 Activity calls are given as the source filed them. Rule as the data show it: active = GI50 up to about 1.1 µM and inactive = higher. Some results are limits rather than exact numbers.

Common to all, as to experiment: DTP human tumour cell line panel, 48 h
In test [1] the test system is HT-29.
Test [2] has as its system IGROV-1.
Test [3] has as its system HOP-62.
Test [4] deals with T47D.
For test [5], the system named is UACC-62.
Test [6] has as its system PC-3.
Test [7] deals with EKVX.
In test [8] the test system is RPMI-8226.
Test [9] has as its system HOP-92.
Test [10] concerns UO-31.
Test [11] deals with RXF 393.
In test [12] the test system is ACHN.
Test [13] has as its system A498.
Test [14] relates to OVCAR-3.
For test [15], the system named is SK-MEL-5.
Test [16] concerns K562.
In test [17] the test system is OVCAR-5.
Test [18] deals with SW-620.
For test [19], the system named is BT-549.
Test [20] concerns DLD-1.

As for `Cc1ccc(SC2=C(N(C)C)C(=O)c3ccccc3C2=O)cc1`, the GI50 (commonly the concentration at which growth is held to half of that of the control) in test [1] was 6.27 µM (inactive); in test [2], 4.95 µM (inactive); in test [3] it was 8.2 µM (inactive); in test [4] it was 3.35 µM (inactive); in test [5], 4.35 µM (inactive); in test [6], 4.11 µM (inactive). For the same compound, the GI50 in test [7] is 6.71 µM (inactive); in test [8], 2.54 µM (inactive); in test [9] it was 4.71 µM (inactive); in test [10], 10.1 µM (inactive); in test [11], 6.15 µM (inactive); in test [12] it was 6.87 µM (inactive). Besides, the GI50 is 15.9 µM (inactive) in test [13]; 0.661 µM (active) in [14]; 2.31 µM (inactive) in test [15]; 0.383 µM (active) in [16]; 12.9 µM (inactive) in [17]; 1.46 µM (inactive) in test [18]. Further, the GI50 in [19] is 6.43 µM (inactive).

`c1ccc(CN2CCC(CNc3ncnc4ccccc34)C2)cc1` (stereo unspecified): the GI50 in [1] was 33.1 µM (inactive); in [2] it was > 100 µM (inactive); in test [3], > 100 µM (inactive); in [4], 93.5 µM (inactive); in test [5] it was > 100 µM (inactive); in test [6], 95.3 µM (inactive). For the same compound, the GI50 was 25.1 µM (inactive) in [7]; 9.02 µM (inactive) in test [8]; 34.8 µM (inactive) in test [9]; 63.1 µM (inactive) in test [10]; > 100 µM (inactive) in [11]; > 100 µM (inactive) in test [12]. Moreover, the GI50 is 41.3 µM (inactive) in [13]; > 100 µM (inactive) in test [14]; 21.2 µM (inactive) in test [15]; 23 µM (inactive) in test [16]; > 100 µM (inactive) in test [17]; > 100 µM (inactive) in [18]. Besides, in [19], the GI50 is > 100 µM (inactive).

Take `C[N+](C)(C)Cc1c(CC#N)[nH]c2ccccc12`: the GI50 in test [1] was > 100 µM (inactive); in test [2], > 100 µM (inactive); in test [3] it was > 100 µM (inactive); in test [5], > 100 µM (inactive); in test [7], > 100 µM (inactive); in test [8], 31.6 µM (inactive). The GI50 was > 100 µM (inactive) in test [20]; 76.7 µM (inactive) in [10]; > 100 µM (inactive) in [11]; > 100 µM (inactive) in test [12]; > 100 µM (inactive) in [13]; > 100 µM (inactive) in test [14]. Further, the GI50 in test [15] is > 100 µM (inactive); in [16], 25.8 µM (inactive); in test [17], > 100 µM (inactive); in test [18] it was > 100 µM (inactive).

Turning to `c1ccc(C[N+]23CN4CN(CN(C4)C2)C3)cc1`, the GI50 in test [1] is 33.2 µM (inactive); in [2], 52.2 µM (inactive); in test [3], 69.2 µM (inactive); in [4] it was 28.4 µM (inactive); in test [5], 17.3 µM (inactive); in [6] it was 17 µM (inactive). The GI50 is > 100 µM (inactive) in test [7]; 22.5 µM (inactive) in test [8]; 36.1 µM (inactive) in test [9]; 20.8 µM (inactive) in [10]; 18 µM (inactive) in test [11]; 29.3 µM (inactive) in test [12]. Besides, the GI50 was > 100 µM (inactive) in test [13]; > 100 µM (inactive) in test [14]; 23.9 µM (inactive) in [15]; 29.7 µM (inactive) in test [16]; > 100 µM (inactive) in test [17]; 24.1 µM (inactive) in test [18]. Moreover, the GI50 in test [19] was 48.2 µM (inactive).

For `CC(C)=CC(O)C/C(C)=C/CC/C(C)=C/CCC1(C)C(CCCO)/C(=C(/C)C=O)CCC1(C)O` (stereo unspecified), the GI50 in test [1] was 26.1 µM (inactive); in test [2], 24.8 µM (inactive); in test [3], 25.9 µM (inactive); in test [4] it was 61.9 µM (inactive); in [5], 35.9 µM (inactive); in test [6], 44.8 µM (inactive). Moreover, the GI50 was 27.5 µM (inactive) in test [7]; 21.3 µM (inactive) in test [8]; 22.8 µM (inactive) in [9]; 33.7 µM (inactive) in [10]; 25.7 µM (inactive) in test [11]; 20.6 µM (inactive) in [12]. Besides, the GI50 in [13] was 34.2 µM (inactive); in test [14] it was 86.1 µM (inactive); in test [15], 43.9 µM (inactive); in [16], 2.99 µM (inactive); in [17], > 100 µM (inactive); in test [18] it was 40.6 µM (inactive). Further, in test [19], the GI50 was 40.6 µM (inactive).

In the case of `COc1ccc2c3c([nH]c2c1[N+](=O)[O-])C(C)N(Cc1ccccc1)CC3` (stereo unspecified), the GI50 in [1] is 2.92 µM (inactive); in test [2], 3.57 µM (inactive); in test [3] it was 2.07 µM (inactive); in [5], 3.1 µM (inactive); in test [7], 40.3 µM (inactive); in test [8], 2.43 µM (inactive). In addition, the GI50 is > 100 µM (inactive) in test [20]; 13.8 µM (inactive) in test [10]; 3.21 µM (inactive) in [11]; 6.31 µM (inactive) in test [12]; 2.4 µM (inactive) in test [13]; 3.52 µM (inactive) in [14]. The GI50 is 0.643 µM (active) in test [16], 43.3 µM (inactive) in test [17] and 2.11 µM (inactive) in test [18].

For `Nc1nc(SCCNC(=O)CCc2ccc(O)cc2)nc2c1ncn2C1OC(CO)C(O)C1O` (stereo unspecified), the GI50 in test [1], in [2], in test [3], in test [5], in [8] and in test [20] was > 203 µM (inactive) each time. The GI50 in test [9], in test [10], in test [12], in test [13], in test [14] and in test [15] was > 203 µM (inactive) throughout. The GI50 in [16], in [17] and in test [18] was > 203 µM (inactive) throughout.

For `O=C(c1ccccc1)c1nc2c(Cl)ccc(Cl)c2cc1C(Br)Br`, the GI50 in test [2] is 2.75 µM (inactive); in [3], 1.67 µM (inactive); in test [5], 1.25 µM (inactive); in test [8], 0.284 µM (active); in [20], 0.444 µM (active); in [10], 1.29 µM (inactive). The GI50 in test [11] was 2.34 µM (inactive); in test [12], 0.243 µM (active); in test [14], 1.55 µM (inactive); in test [15], 1.34 µM (inactive); in test [16] it was 0.311 µM (active); in test [17] it was 1.08 µM (active). For the same compound, in test [18], the concentration for 50% growth inhibition (GI50) is 0.308 µM (active).

Take `COc1c(C)cc2c(c1O)C1NC(C2)[C@H](O)N2C3COC(=O)[C@@]4(CS[C@@H](c5c(OC(C)=O)c(C)c6c(c53)OCO6)C12)NCCC1=C4NC2C=CC=CC12` (stereo partly specified): the GI50 in [1], in [2], in test [3], in [5], in test [7] and in test [8] was < 0.01 µM (active) each time. Moreover, the GI50 is < 0.01 µM (active) in test [20]; 0.0148 µM (active) in test [10]; < 0.01 µM (active) in [11]; < 0.01 µM (active) in [12]; < 0.01 µM (active) in test [13]; < 0.01 µM (active) in test [14]. In addition, the GI50 in test [15], in test [16] and in test [18] was < 0.01 µM (active) in each case.

Consider `O=S1(=O)c2ccccc2-c2nccc3ccnc1c23`, for which the GI50 was 5.58 µM (inactive) in [1]; 7.67 µM (inactive) in [2]; 40.7 µM (inactive) in [3]; 29.4 µM (inactive) in test [4]; 7.59 µM (inactive) in test [5]; 7.31 µM (inactive) in [6]. Further, the GI50 in test [7] is 15.4 µM (inactive); in test [8], 16.2 µM (inactive); in test [9] it was 24.3 µM (inactive); in [10], 8.24 µM (inactive); in test [11], 34 µM (inactive); in test [12], 8.57 µM (inactive). For the same compound, the GI50 was 27.5 µM (inactive) in test [13]; 10.3 µM (inactive) in [14]; 4.82 µM (inactive) in test [15]; 4.33 µM (inactive) in [16]; 41.2 µM (inactive) in [17]; 7.23 µM (inactive) in [18]. The GI50 in [19] is 3.77 µM (inactive).

In the case of `CN(C)c1n/c(=N/Cc2ccncc2)ss1`, the GI50 in test [1] was 19.3 µM (inactive); in test [2], > 75.5 µM (inactive); in test [3], > 10 µM (inactive); in [4] it was 10.7 µM (inactive); in test [5], 30.2 µM (inactive); in [6], 26.1 µM (inactive). Moreover, the GI50 is > 71.9 µM (inactive) in [7]; 21 µM (inactive) in [8]; > 63.1 µM (inactive) in [9]; > 50 µM (inactive) in [10]; 31.8 µM (inactive) in test [11]; 13.5 µM (inactive) in test [12]. Besides, the GI50 in [13] is > 100 µM (inactive); in test [14] it was > 48.6 µM (inactive); in test [15] it was > 10 µM (inactive); in [16], 17 µM (inactive); in test [17], 22.6 µM (inactive); in [18], 23.9 µM (inactive). In test [19], the GI50 was 19.8 µM (inactive).

Take `COc1cc2ccnc(C#N)c2cc1OCc1ccccc1`: the GI50 in test [1] is > 100 µM (inactive); in test [3] it was 35.6 µM (inactive); in [7], > 100 µM (inactive); in test [8] it was > 100 µM (inactive); in test [20] it was > 100 µM (inactive); in test [10], > 100 µM (inactive). In addition, the GI50 is > 100 µM (inactive) in test [12]; 87.1 µM (inactive) in test [13]; > 100 µM (inactive) in [14]; > 100 µM (inactive) in [15]; > 100 µM (inactive) in test [16]; > 100 µM (inactive) in [17]. In test [18], the GI50 is > 100 µM (inactive).
